Data reported in patent publication US5002952A, “Readily absorbed pharmaceutical composition” (priority 1986, dated 1991).

Tested on: L-1210 leukemia cells
Assay: Antitumour activities (survival of BDF1 mice inoculated intraperitoneally with L-1210 leukemia cells, oral test drug)
Description: To BDF1 mice (male, 20-22 g), L-1210 leukemia cells were intraperitoneally inoculated in an amount of 1×10^6 cells/mouse. One day later and 4 days later, a test drug was orally administered. […] Therefore, in this test, Compound No. 3, and a 10 w/v% HCO60 solution were mixed, and pulverized in a wet system to obtain a liquid suspension, and the liquid suspension was administered to each mouse in an amount of 0.5 ml.
The activity was evaluated by a survival rate [T/C (%)]as compared with a control group to which a physiological saline was administered, and T/C values are shown in Table 2.

With `O=C(NC(=O)c1ccccc1[N+](=O)[O-])Nc1ccc(Oc2ncc(Br)cn2)c(Cl)c1` [Compound No. 3] the “toxicity (T/C)” value (high dose region, composition wet pulverized with HCO60) was “less than 100%”, the “antitumour activity (in words)” value (wet pulverized in the absence of HCO60, same dose) was “no substantial antitumour activity was observed” and the “antitumour activity (in words)” value (wet pulverized together with the specific substance (HCO60)) was “adequate antitumour activity”.
